Consider six molecules from paper PMC8546421, “Molecular modelling of the FOXO4-TP53 interaction to design senolytic peptides for the elimination of senescent cancer cells” (EBioMedicine, 2021).

Where no end group is shown, it is not given here. [ ]: non-standard residue; d: D form. Some results are limits rather than exact numbers.

For test [1], the system named is Braf/Pten sporadic melanomas. The test can be described thus: TUNEL staining of melanomas in transgenic mice. The test is classed as in vivo, mouse. Particulars: intratumoural injection daily over two days, single agents vs saline.
Experimental: Fixed frozen sections of melanomas were stained with the Click-IT Plus TUNEL assay (ThermoFisher C10618) according to the manufacturer's protocol. Stained sections were imaged with a Zeiss A2 upright microscope at either 20x or 10x. At least one of each treatment group were stained and imaged at the same time. All sections from each staining group were set to the same exposure time for TUNEL and DAPI. Any normalization of background levels was performed in Adobe Photoshop and set to the same scale for the entire image and for all other images.
The test system of test [2] is Braf/Pten sporadic melanomas. The test can be described thus: SA-β-gal staining of melanomas in transgenic mice. The test is classed as in vivo, mouse. The method, then: Senescent and dividing cells or tissue sections were fixed with 4% formaldehyde. The cells were washed with PBS twice before staining with X-gal solution [1 mg/mL 5-bromo-4-chloro-3inolyl-β-D-galactoside (Boehringer Manneheim #745-740) in N,N-dimethylformamide, 5 mM potassium ferricyanide crystalline (#P-8131), 5 mM potassium […] (#P-3289), 2 mM magnesium chloride, and 1x PBS, pH 6.0. Cells or tissue sections were incubated at 37°C for 24 hours. After staining, cells were washed with PBS before being counted and imaged on the Leica Dmi8 microscope.
Mice were aged between 3-8 months and 20-30 g in weight and were housed in specific pathogen free cages. Animals were randomly distributed among treatment groups by assigning mice within the same cage to different treatment regimens. To minimise confounders, mouse treatment order was randomised within each cage. Male and female mice were distributed between all treatment groups since the chemicals used were directly injected and are not metabolized. Researchers were not blinded to the group allocation, but all attempts were made to analyse the data without knowing treatment conditions. […] Mice were then monitored daily and allowed to age until a humane endpoint was reached according to our IACUC protocol, which in this case was tumours of 2 cm in size. […]

Test [3] relates to dividing A375 human melanoma cells. The test can be described thus: Survival study, orthotopic A375 xenograft. In kind it is in vivo, mouse. Particulars: local injection once daily for two days. An excerpt:
Mice were aged between 3-8 months and 20-30 g in weight and were housed in specific pathogen free cages. Animals were randomly distributed among treatment groups by assigning mice within the same cage to different treatment regimens. To minimise confounders, mouse treatment order was randomised within each cage. Male and female mice were distributed between all treatment groups since the chemicals used were directly injected and are not metabolized. Researchers were not blinded to the group allocation, but all attempts were made to analyse the data without knowing treatment conditions. NOD.Cg-Prkdcscid Il2rgtm1Wjl/SzJ (NSG) were purchased from The Jackson Laboratory (IMSR Cat# JAX:005557, RRID:IMSR_JAX:005557). NOD.Cg-KitW-41J Tyr + Prkdcscid Il2rgtm1Wjl/ThomJ (NBSGW) were purchased from The Jackson Laboratory (IMSR Cat# JAX:026622, RRID:IMSR_JAX:026622). Immunocompromised mice used for these experiments were all in the NSG background; however, some mice were F1 generation of NSG x NBSGW, thus the brown coat colour as NBSGW mice have tyrosinase. Xenografts containing senescent cells were established by injecting A375-Luc/iRFP human melanoma cells which contained a luciferase expressing gene into immunocompromised NSG ears. Senescence was induced in the cells via doxorubicin treatment (40 nM) then resuspended in DMEM prior to injection. Each ear was then injected with 50 µL containing approximately 1,000,000 cells. The ears were treated once daily for two days with 50 µL of either 5 mg/mL peptide, or saline. To control for confounders, each mouse contained one ear treated with saline (control). For imaging, mice were injected with 3 mg luciferin intravenously and imaged before and after treatment. Transgenic mice (BrafCA, PtenloxP, Tyr::CreERT2) were purchased from The Jackson Laboratory (IMSR Cat# JAX:013590, RRID:IMSR_JAX:013590). These mice were maintained on a C57Bl6 background and all experimental mice contained Tyr::CreER with either Braf^CA/+, Pten^fx/+; Braf^CA/CA, Pten^fx/+, or Braf^CA/+, Pten^fx/fx. […] Hypopigmented melanomas sporadically formed over the next 3-5 months, typically on the back of the mouse. These melanomas were then directly injected with 100 µL of either 20 mg/mL ES2+10%DMSO, saline+10%DMSO, saline+10%Dabrafenib, or 20 mg/mL ES2+10%Dabrafenib. The researchers were not blinded to the experiment, but each mouse contained an internal control and all imaging was done with the same exposure times based upon control tissue. For survival analyses, either 750,000 or 25,000 A375-Luc/iRFP cells were injected intradermally into NSG mice. […] Mice were then monitored daily and allowed to age until a humane endpoint was reached according to our IACUC protocol, which in this case was tumours of 2 cm in size. […]

The test system of test [4] is senescent A375 cells. The test can be described thus: Peptide efficacy in culture (MTS), senescent cells. In kind it is cell-based, human. Particulars: for senolytic activity (in words): senescent vs dividing A375 cells; for IC50: doxorubicin (40 nM)-induced senescent A375 cells, peptide replenished daily for two days, MTS, best fit polynomial, read-out: IC50^sen, concentration to kill 50% of senescent cells. The method, then: (§1) Cell lines were treated with chemotherapy, doxorubicin (Sigma, Cat. No. 2252) to induce senescence (200 nM for HCT116, 100 nM for B16-F10 and MCF7, 50 nM for SW480 and DLD-1, 40 nM for A375-Luc/iRFP and MCF10a). MCF7 cells were treated with CDK4/6 inhibitor, palbociclib (Selleck Chemicals: S1116) to induce senescence (5 µM). A375 cells were treated with Braf inhibitor, Dabrafenib (Selleck Chemicals: S2807), to induce senescence (10 µM). Peptide efficacy experiments were performed by seeding 10,000 – 20,000 cells in a 96-well plate. The cells were given doxorubicin twice to make the cells senescent. After removal of doxorubicin, the plate was treated with varying concentrations of peptide. The peptide was replenished daily for two days. Cellular proliferation was quantified using the Promega CellTiter 96™ AQueous One Solution Cell Proliferation Assay (MTS) after 2 hours according to the manufacturer's protocol (Promega, G3581). To control for the charge of ES2, ProteoJuice (Millipore Sigma, 71281) was used to deliver ES2 using the manufacturers protocol, except 50 µL of 2 mM ES2 was mixed with 25 µL of ProteoJuice. Varying concentrations of the mixture were administered to A375 cells along with a control of only ProteoJuice.

The subject of test [5] is senescent A375 human melanoma cells. Briefly: Orthotopic xenograft of senescent luciferase A375 cells in mouse ears. In kind it is in vivo. The note with it: NSG mouse ears, local injection 50 µL of 5 mg/mL once daily for two days, imaged 24 hours after second treatment; ANOVA p<0.01. From the text: Mice were aged between 3-8 months and 20-30 g in weight and were housed in specific pathogen free cages. Animals were randomly distributed among treatment groups by assigning mice within the same cage to different treatment regimens. To minimise confounders, mouse treatment order was randomised within each cage. Male and female mice were distributed between all treatment groups since the chemicals used were directly injected and are not metabolized. Researchers were not blinded to the group allocation, but all attempts were made to analyse the data without knowing treatment conditions. NOD.Cg-Prkdcscid Il2rgtm1Wjl/SzJ (NSG) were purchased from The Jackson Laboratory (IMSR Cat# JAX:005557, RRID:IMSR_JAX:005557). NOD.Cg-KitW-41J Tyr + Prkdcscid Il2rgtm1Wjl/ThomJ (NBSGW) were purchased from The Jackson Laboratory (IMSR Cat# JAX:026622, RRID:IMSR_JAX:026622). Immunocompromised mice used for these experiments were all in the NSG background; however, some mice were F1 generation of NSG x NBSGW, thus the brown coat colour as NBSGW mice have tyrosinase. Xenografts containing senescent cells were established by injecting A375-Luc/iRFP human melanoma cells which contained a luciferase expressing gene into immunocompromised NSG ears. Senescence was induced in the cells via doxorubicin treatment (40 nM) then resuspended in DMEM prior to injection. Each ear was then injected with 50 µL containing approximately 1,000,000 cells. The ears were treated once daily for two days with 50 µL of either 5 mg/mL peptide, or saline. To control for confounders, each mouse contained one ear treated with saline (control). For imaging, mice were injected with 3 mg luciferin intravenously and imaged before and after treatment. Transgenic mice (BrafCA, PtenloxP, Tyr::CreERT2) were purchased from The Jackson Laboratory (IMSR Cat# JAX:013590, RRID:IMSR_JAX:013590). These mice were maintained on a C57Bl6 background and all experimental mice contained Tyr::CreER with either Braf^CA/+, Pten^fx/+; Braf^CA/CA, Pten^fx/+, or Braf^CA/+, Pten^fx/fx. […] Hypopigmented melanomas sporadically formed over the next 3-5 months, typically on the back of the mouse. These melanomas were then directly injected with 100 µL of either 20 mg/mL ES2+10%DMSO, saline+10%DMSO, saline+10%Dabrafenib, or 20 mg/mL ES2+10%Dabrafenib. The researchers were not blinded to the experiment, but each mouse contained an internal control and all imaging was done with the same exposure times based upon control tissue. For survival analyses, either 750,000 or 25,000 A375-Luc/iRFP cells were injected intradermally into NSG mice. Different combinations of drugs were locally injected to the region once daily for two days with 50 µL of either 5 mg/mL ES2, 10%Dabrafenib, or 5mg/mL ES2+10%Dabrafenib. Dabrafenib was made at 100 mg/mL in DMSO. Mice were then monitored daily and allowed to age until a humane endpoint was reached according to our IACUC protocol, which in this case was tumours of 2 cm in size. Aged C57Bl6 male mice were purchased from the Jackson Laboratory (IMSR Car# JAX:000664, RRID:IMSR_JAX:000664) at 72 weeks of age and were started on the experiment at 82 weeks. Mice were treated with 3 mg of ES2 via tail vein injection weekly for three weeks and weighed weekly. Blood was drawn prior to beginning experiments and at the endpoint. To generate plasma, blood was centrifuged at 1,500g for 10 minutes, then 2,500g for 10 minutes, then frozen for later analyses. […]

Test [6] deals with dividing A375 cells. The test can be described thus: Peptide efficacy in culture (MTS), dividing cells. The test is classed as cell-based, human. Particulars: for IC50: peptide replenished daily for two days, MTS, best fit polynomial, read-out: IC50^div, concentration to kill 50% of dividing cells. The method, then: as §1

Regarding `CC(C)(C)c1nc(-c2cccc(NS(=O)(=O)c3c(F)cccc3F)c2F)c(-c2ccnc(N)n2)s1` [Dabrafenib], the entries for the “effect on apoptosis (TUNEL), in words” value in test [1] and in test [1] (listed as Dab) were “no effect on apoptosis” and “no difference”, respectively. Also, the “increase of fraction of SA-β-gal+ cells within the melanoma over saline” value in test [2] (Dabrafenib n=8, saline n=5, p<0.001) worked out at 11 fold. The “senescence of the melanoma compared to vehicle, in words” value in test [2] (intratumoural injection daily over two days) is “strongly induced senescence”. Moreover, the figures for the “effect on survival time, in words” value in test [3] (25,000 A375 cells) and in test [3] (750,000 A375 cells) were “no effect on survival time” and “did not alter survival times”, respectively.
“H-GRKKRRQRRRPPPRKGGSRRRAWGNQRYARLIRQAIESAPEKRLTLA-OH [E1]”: the “senolytic activity (in words)” value in test [4] is on record as “negligible senolytic activity”.
Regarding “PRKGGRRRRAWGRRRRRRRLRRRLRRAPRKRLTLA [ES2r1]”, the “luciferase signal compared to E1 and saline” value in test [5] is on record as “statistically significantly reduced luciferase signal”. Moreover, the IC50 is about 13 µM in test [6] and about 6 µM in test [4]. Besides, in test [4], the “senolytic activity (in words)” value is listed as “highest senolytic activity”.
As to “PRKGGSRRRAWGRRRYRRRLRRRLRRAPRKRLTLA [ES2r2]”, the “luciferase signal compared to E1 and saline” value in test [5] was “statistically significantly reduced luciferase signal”. In addition, the IC50 in test [6] is over 20 µM. In test [4], the IC50 is about 9 µM and the “senolytic activity (in words)” value is listed as “slightly lower senolytic activity”.
For YGRKKRRQRRRYGRKKRRQRRRYGRKKRRQRRR [ES1] the same measures were “statistically significantly reduced luciferase signal”, about 19 µM, about 4 µM and “highest senolytic activity”.
In the case of “[dL][dT][dL][dR][dK][dE][dP][dA][dS][dE][dI][dA][dQ][dS][dI][dL][dE][dA][dY][dS][dQ][dN]G[dW][dA][dN][dR][dR][dS]GG[dK][dR][dP][dP][dP][dR][dR][dR][dQ][dR][dR][dK][dK][dR]G [FOXO4-DRI, reference compound]”, the “luciferase signal compared to E1 and saline” value in test [5] is “statistically significantly reduced luciferase signal”. Besides, in test [6], the “lytic activity in dividing cells (in words)” value was “minimal lytic activity in dividing cells”.
